Columns and labels:
[1] = biological target: T1, human orexin-2 receptor (hOX2R) (Homo sapiens, UniProt O43614); experiment: FLIPR Ca2+ Flux Assay, CHO cells expressing hOX2R; type: cell-based; conditions: agonist 70 pM Ala-6,12 orexin-A
T1 construct: expressed in transfected cells; host or cells: Chinese hamster ovary (CHO) cells, grown under G418 selection
T1 sequence (O43614 1-444): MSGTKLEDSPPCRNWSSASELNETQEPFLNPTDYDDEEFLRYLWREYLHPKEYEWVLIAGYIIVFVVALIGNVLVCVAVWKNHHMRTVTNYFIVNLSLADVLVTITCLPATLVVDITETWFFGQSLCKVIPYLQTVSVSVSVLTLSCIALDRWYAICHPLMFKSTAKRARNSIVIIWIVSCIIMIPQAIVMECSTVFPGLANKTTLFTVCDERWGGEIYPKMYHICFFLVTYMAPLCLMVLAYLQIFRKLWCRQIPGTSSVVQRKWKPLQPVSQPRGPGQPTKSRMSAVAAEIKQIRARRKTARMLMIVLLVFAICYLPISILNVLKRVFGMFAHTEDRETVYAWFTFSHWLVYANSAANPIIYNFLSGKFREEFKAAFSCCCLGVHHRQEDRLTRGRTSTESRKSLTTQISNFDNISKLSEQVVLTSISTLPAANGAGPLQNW
Description: The utility of the compounds in accordance with the present invention as orexin receptor OX1R and/or OX2R antagonists may be readily determined without undue experimentation by methodology well known in the art, including the “FLIPR Ca^2+ Flux Assay” (Okumura et al., Biochem. Biophys. Res. Comm. 280:976-981, 2001). In a typical experiment the OX1 and OX2 receptor antagonistic activity of the compounds of the present invention was determined in accordance with the following experimental method. For intracellular calcium measurements, Chinese hamster ovary (CHO) cells expressing the rat orexin-1 receptor or the human orexin-2 receptor, are grown in Iscove's modified DMEM containing 2 mM L-glutamine, […], 1% hypoxanthine-thymidine supplement, 100 U/ml penicillin, 100 μg/ml streptomycin and 10% heat-inactivated fetal calf serum (FCS). The cells are seeded at 20,000 cells/well into Becton-Dickinson black 384-well clear bottom sterile plates coated with poly-D-lysine. All reagents were from GIBCO-Invitrogen Corp. The seeded plates are incubated overnight at 37° C. and 5% CO2. Ala-6,12 human orexin-A as the agonist is prepared as a 1 mM stock solution in 1% bovine serum albumin (BSA) and diluted in assay buffer (HBSS containing 20 mM HEPES, 0.1% BSA and 2.5 mM probenecid, pH7.4) for use in the assay at a final concentration of 70 pM. Test compounds are prepared as 10 mM stock solution in DMSO, then diluted in 384-well plates, first in DMSO, then assay buffer. On the day of the assay, cells are washed 3 times with 100 μl assay buffer and then incubated for 60 min (37° C., 5% CO2) in 60 μl assay buffer containing 1 μM Fluo-4AM ester, 0.02% pluronic acid, and 1% BSA. The dye loading solution is then aspirated and cells are washed 3 times with 100 μl assay buffer. 30 μl of that same buffer is left in each well. Within the Fluorescent Imaging Plate Reader (FLIPR, Molecular Devices), test compounds are added to the plate in a volume of 25 μl, incubated for 5 min and finally 25 μl of agonist is added. Fluorescence is measured for each well at 1 second intervals for 5 minutes and the height of each fluorescence peak is compared to the height of the fluorescence peak induced by 70 pM Ala-6,12 orexin-A with buffer in place of antagonist. For each antagonist, IC50 value (the concentration of compound needed to inhibit 50% of the agonist response) is determined. Alternatively, compound potency can be assessed by a radioligand binding assay (described in Bergman et. al. Bioorg. Med. Chem. Lett. 2008, 18, 1425-1430) in which the inhibition constant (Ki) is determined in membranes prepared from CHO cells expressing either the OX1 or OX2 receptor. The intrinsic orexin receptor antagonist activity of a compound which may be used in the present invention may be determined by these assays.
Chinese hamster ovary (CHO) cells expressing the human orexin-1 receptor (hOX1R) or the human orexin-2 receptor (hOX2R) were grown in Iscove's modified DMEM containing 2 mM L-glutamine, […], 1% hypoxanthine-thymidine supplement, 100 U/ml penicillin, 100 μg/ml streptomycin and 10% heat-inactivated fetal calf serum (FCS). The cells were seeded at 20,000 cells/well into Becton-Dickinson black 384-well clear bottom sterile plates coated with poly-D-lysine. All reagents were from GIBCO-Invitrogen Corp. The seeded plates were incubated overnight at 37° C. and 5% CO2. Ala-6,12 human orexin-A, used as the agonist, was prepared as a 1 mM stock solution in 1% bovine serum albumin (BSA) and diluted in assay buffer (HBSS containing 20 mM HEPES, 0.1% BSA and 2.5 mM probenecid, pH7.4) for use in the assay at a final concentration of 70 pM. Test compounds were prepared as 10 mM stock solution in DMSO, then diluted in 384-well plates, first in DMSO, then assay buffer. […]

[2] = biological target: T2, human orexin-1 receptor (hOX1R) (Homo sapiens, UniProt O43613); experiment: FLIPR Ca2+ Flux Assay, CHO cells expressing hOX1R; type: cell-based; conditions: agonist 70 pM Ala-6,12 orexin-A
T2 construct: expressed in transfected cells; host or cells: Chinese hamster ovary (CHO) cells, grown under G418 selection
T2 sequence (O43613 1-425): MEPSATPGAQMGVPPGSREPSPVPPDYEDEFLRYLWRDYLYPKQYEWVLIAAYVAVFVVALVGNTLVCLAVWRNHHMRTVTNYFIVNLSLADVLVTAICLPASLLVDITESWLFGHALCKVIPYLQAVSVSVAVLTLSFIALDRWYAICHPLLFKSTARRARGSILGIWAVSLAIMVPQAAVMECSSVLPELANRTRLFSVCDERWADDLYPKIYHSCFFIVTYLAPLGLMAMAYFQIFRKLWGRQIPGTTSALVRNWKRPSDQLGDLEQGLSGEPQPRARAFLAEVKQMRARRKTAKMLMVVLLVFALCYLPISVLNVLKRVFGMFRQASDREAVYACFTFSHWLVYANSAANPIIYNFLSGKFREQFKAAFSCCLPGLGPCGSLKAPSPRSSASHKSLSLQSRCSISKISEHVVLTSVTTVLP
Description: Chinese hamster ovary (CHO) cells expressing the human orexin-1 receptor (hOX1R) or the human orexin-2 receptor (hOX2R) were grown in Iscove's modified DMEM containing 2 mM L-glutamine, […], 1% hypoxanthine-thymidine supplement, 100 U/ml penicillin, 100 μg/ml streptomycin and 10% heat-inactivated fetal calf serum (FCS). The cells were seeded at 20,000 cells/well into Becton-Dickinson black 384-well clear bottom sterile plates coated with poly-D-lysine. All reagents were from GIBCO-Invitrogen Corp. The seeded plates were incubated overnight at 37° C. and 5% CO2. Ala-6,12 human orexin-A, used as the agonist, was prepared as a 1 mM stock solution in 1% bovine serum albumin (BSA) and diluted in assay buffer (HBSS containing 20 mM HEPES, 0.1% BSA and 2.5 mM probenecid, pH7.4) for use in the assay at a final concentration of 70 pM. Test compounds were prepared as 10 mM stock solution in DMSO, then diluted in 384-well plates, first in DMSO, then assay buffer.
On the day of the assay, cells were washed 3× with 100 μl assay buffer and then incubated for 60 minutes (37° C., 5% CO2) in 60 μl assay buffer containing 1 μM Fluo-4AM ester, 0.02% pluronic acid, and 1% BSA. The dye loading solution was then aspirated and cells were washed 3× with 100 μl assay buffer. 30 μl of that same buffer was left in each well. Within the Fluorescent Imaging Plate Reader (FLIPR, Molecular Devices), test compounds were added to the plate in a volume of 25 μl, incubated for 5 minutes, and then 25 μl of agonist was added. Fluorescence was measured for each well at 1 second intervals for 5 minutes, and the height of each fluorescence peak was compared to the height of the fluorescence peak induced by 70 pM of Ala-6,12 orexin-A with buffer in place of test compound.

| SMILES | IC50 [1] [nM] | IC50 [2] [nM] |
| --- | --- | --- |
| CC(O)c1cccnc1O[C@@H]1CC[C@@H](C)N(C(=O)c2ccccc2-n2nccn2)C1 (stereo partly drawn) [Example 31, 1-(2-{[(3R,6R)-6-methyl-1-{[2-(2H-1,2,3-triazol-2-yl)phenyl]carbonyl}piperidin-3-yl]oxy}pyridin-3-yl)ethanol] | 27 | 65 |
| CC[C@H](O)c1cccnc1O[C@@H]1CC[C@@H](C)N(C(=O)c2ccccc2-n2nccn2)C1 [Example 32, (1S)-1-(2-{[(3R,6R)-6-methyl-1-{[2-(2H-1,2,3-triazol-2-yl)phenyl]carbonyl}piperidin-3-yl]oxy}pyridin-3-yl)propan-1-ol] | 27 | 227 |
| CC[C@@H](O)c1cccnc1O[C@@H]1CC[C@@H](C)N(C(=O)c2ccccc2-n2nccn2)C1 [Example 33, (1R)-1-(2-{[(3R,6R)-6-methyl-1-{[2-(2H-1,2,3-triazol-2-yl)phenyl]carbonyl}piperidin-3-yl]oxy}pyridin-3-yl) propan-1-ol] | 33 | 46 |
| C#C[C@H](O)c1cccnc1O[C@@H]1CC[C@@H](C)N(C(=O)c2ccccc2-n2nccn2)C1 [Example 34, (1S)-1-(2-{[(3R,6R)-6-methyl-1-{[2-(2H-1,2,3-triazol-2-yl)phenyl]carbonyl}piperidin-3-yl]oxy}pyridin-3-yl)prop-2-yn-1-ol] | 26 | 584 |
| C#C[C@@H](O)c1cccnc1O[C@@H]1CC[C@@H](C)N(C(=O)c2ccccc2-n2nccn2)C1 [Example 35, (1R)-1-(2-{[(3R,6R)-6-methyl-1-{[2-(2H-1,2,3-triazol-2-yl)phenyl]carbonyl}piperidin-3-yl]oxy}pyridin-3-yl)prop-2-yn-1-ol] | 27 | 64 |
| C[C@@H]1CC[C@@H](Oc2ncccc2[C@H](O)C(F)(F)F)CN1C(=O)c1ccccc1-n1nccn1 [Example 36, (1S)-2,2,2-Trifluoro-1-(2-{[(3R,6R)-6-methyl-1-{[2-(2H-1,2,3-triazol-2-yl)phenyl]carbonyl}piperidin-3-yl]oxy}pyridin-3-yl)ethanol] | 24 | 904 |
| C[C@@H]1CC[C@@H](Oc2ncccc2[C@@H](O)C(F)(F)F)CN1C(=O)c1ccccc1-n1nccn1 [Example 37, (1R)-2,2,2-Trifluoro-1-(2-{[(3R,6R)-6-methyl-1-{[2-(2H-1,2,3-triazol-2-yl)phenyl]carbonyl}piperidin-3-yl]oxy}pyridin-3-yl)ethanol] | 18 | 55 |
| CC(O)c1c(C(F)(F)F)ccnc1O[C@@H]1CC[C@@H](C)N(C(=O)c2ccccc2-n2nccn2)C1 (stereo partly drawn) [Example 38, 1-[2-{[(3R,6R)-6-Methyl-1-{[2-(2H-1,2,3-triazol-2-yl)phenyl]carbonyl}piperidin-3-yl]oxy}-4-(trifluoromethyl)pyridin-3-yl]ethanol] | 110 | 188 |
| C[C@@H]1CC[C@@H](Oc2ncccc2CO)CN1C(=O)c1ccccc1-n1nccn1 [Example 39, (2-{[(3R,6R)-6-Methyl-1-{[2-(2H-1,2,3-triazol-2-yl)phenyl]carbonyl}piperidin-3-yl]oxy}pyridin-3-yl)methanol] | 18 | 925 |
| CCc1ccnc(O[C@@H]2CC[C@@H](C)N(C(=O)c3ccccc3-n3nccn3)C2)c1CO [Example 40, (4-Ethyl-2-{[(3R,6R)-6-methyl-1-{[2-(2H-1,2,3-triazol-2-yl)phenyl]carbonyl}piperidin-3-yl]oxy}pyridin-3-yl)methanol] | 17 | 103 |
| Cc1ccnc(O[C@@H]2CC[C@@H](C)N(C(=O)c3ccccc3-n3nccn3)C2)c1CO [Example 41, (4-methyl-2-{[(3R,6R)-6-methyl-1-{[2-(2H-1,2,3-triazol-2-yl)phenyl]carbonyl}piperidin-3-yl]oxy}pyridin-3-yl)methanol] | 15 | 69 |
| C[C@@H]1CC[C@@H](Oc2nccc(C3CC3)c2CO)CN1C(=O)c1ccccc1-n1nccn1 [Example 42, (4-cyclopropyl-2-{[(3R,6R)-6-methyl-1-{[2-(2H-1,2,3-triazol-2-yl)phenyl]carbonyl}piperidin-3-yl]oxy}pyridin-3-yl) methanol] | 17 | 107 |
| CC(C)c1ccnc(O[C@@H]2CC[C@@H](C)N(C(=O)c3ccccc3-n3nccn3)C2)c1CO [Example 43, [4-(1-methylethyl)-2-{[(3R,6R)-6-methyl-1-{[2-(2H-1,2,3-triazol-2-yl)phenyl]carbonyl}piperidin-3-yl]oxy}pyridin-3-yl]methanol] | 23 | 80 |
| C[C@@H]1CC[C@@H](Oc2nccc(C(F)(F)F)c2CO)CN1C(=O)c1ccccc1-n1nccn1 [Example 44, [2-{[(3R,6R)-6-methyl-1-{[2-(2H-1,2,3-triazol-2-yl)phenyl]carbonyl}piperidin-3-yl]oxy}-4-(trifluoromethyl)pyridin-3-yl] methanol] | 18 | 81 |

Reference: US20160102073A1, “2-HYDROXYMETHYL-SUBSTITUTED OREXIN RECEPTOR ANTAGONISTS” (MERCK SHARP & DOHME CORP., priority 2013, published 2016)
